From patent US20240109865A1, “INDAZOLE COMPOUNDS AS KINASE INHIBITORS” (TYRA BIOSCIENCES, INC., priority 2020, published 2024)

Key:
[1] = molecular target: FGFR3-BAIAP2L1 Ba/F3 cells (Homo sapiens, UniProt P22607); experiment: Ba/F3 cell viability assay (CellTiter-Glo 2.0), FGFR3-BAIAP2L1 Ba/F3; assay type: cell-based; conditions: for Ba/F3 FGFR1/FGFR3 Selectivity: FGFR3 > FGFR1 selectivity ratio in Ba/F3 FGFR fusion cell based assays; for IC50: read-out: Ba/F3 Cells FGFR3 (IC50 nM), FGFR3-BAIAP2L1 Ba/F3 cells, 48 hours, Cell Titer Glo 2.0
Source text: (§1) Experimental Purpose: Recombinant kinase fusions are transduced into parental Ba/F3, which becomes dependent upon this constitutive kinase activity for IL3-independent survival. Inhibition of kinase activity leads to cell death, which is monitored using CellTiter-Glo® 2.0 (Promega) which measures intracellular ATP concentration that in turn serves as a marker for viability. FGFR1-BCR Ba/F3 and FGFR3-BAIAP2L1 Ba/F3 were obtained from Advanced Cellular Dynamics (Seattle, WA)
(§2) Cell Viability Assay Procedure: Cell Titer-Glo® 2.0 Luminescent cell viability assay reagent was purchased from Promega (Madison, WI). FGFR1-BCR Ba/F3 and FGFR3-BAIAP2L1 Ba/F3 cells were cultured in RPMI1640 media supplemented with 10% fetal bovine serum. Cultures were maintained at 37° C. in a humidified atmosphere of 5% C02 and 95% air.
(§3) Cells were plated in 96-well clear bottom/white plates (Corning #3903) at 10,000 cells/well in 100 μl of media, incubated overnight. The next day, test compound DMSO stock solutions were made at 10 mM and 2 μM final concentration. Compounds were then added to cells in a 9-dose, 10-fold dilution series starting at 30 μM with an HP 300e Digital Dispenser (each dose was applied in triplicate). DMSO was backfilled to each well up to 301 nL total volume of test compound+DMSO, and a total of 301 nL DMSO was added to a control/no test compound well in triplicate. The cells in cell culture plates were incubated with the compounds at 37° C. and 5% C02 for 48 hours. Then 50 μl of Cell Titer Glo 2.0 reagent was added to each well of the cell culture plates. The contents were covered from light and mixed on an orbital shaker at room temperature for 10 min. Luminescence was recorded by a Synergy H1 Microplate Reader (Biotek, Winooski, VT). Cells were assessed as a percentage of DMSO only treated control cells. Curves were plotted and IC50 values were calculated using the GraphPad Prism 8 program based on a sigmoidal dose-response equation (4 parameter).

FGFR4 = FGFR4 (Homo sapiens (Human), UniProt P22455); experiment: Kinase assay, binding constants (Kd), kinase-tagged T7 phage, qPCR
Outline: (§4)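 Competition binding: T7 phage-tagged kinase + biotin-ligand beads + compound (11 pts, 3-fold, 0.9% DMSO). Elution 30 min RT with free ligand; qPCR quantitation. Kd via Hill fit, slope −1.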

FGFR1 = FGFR1 (Homo sapiens (Human), UniProt P11362); experiment: as above
Outline: as §4

FGFR3 = FGFR3 (Homo sapiens (Human), UniProt P22607); experiment: as above
Outline: as §4

FGFR3 (V555M) = FGFR3 (V555M) (Homo sapiens (Human), UniProt P22607, V555M); experiment: as above; conditions: V555M mutant
Outline: as §4

FGFR2 = FGFR2 (Homo sapiens (Human), UniProt P21802); experiment: as above
Outline: as §4

FGFR1-BCR Ba/F3 cells = FGFR1-BCR Ba/F3 cells (Homo sapiens, UniProt P11362); experiment: Ba/F3 cell viability assay (CellTiter-Glo 2.0), FGFR1-BCR Ba/F3; assay type: cell-based; conditions: read-out: Ba/F3 Cells FGFR1 (IC50 nM), 48 hours, Cell Titer Glo 2.0
Source text: as §1, §2, §3

FGFR1-BCR Ba/F3 cells, sequence (P11362 22-822 limits assumed, change not shown): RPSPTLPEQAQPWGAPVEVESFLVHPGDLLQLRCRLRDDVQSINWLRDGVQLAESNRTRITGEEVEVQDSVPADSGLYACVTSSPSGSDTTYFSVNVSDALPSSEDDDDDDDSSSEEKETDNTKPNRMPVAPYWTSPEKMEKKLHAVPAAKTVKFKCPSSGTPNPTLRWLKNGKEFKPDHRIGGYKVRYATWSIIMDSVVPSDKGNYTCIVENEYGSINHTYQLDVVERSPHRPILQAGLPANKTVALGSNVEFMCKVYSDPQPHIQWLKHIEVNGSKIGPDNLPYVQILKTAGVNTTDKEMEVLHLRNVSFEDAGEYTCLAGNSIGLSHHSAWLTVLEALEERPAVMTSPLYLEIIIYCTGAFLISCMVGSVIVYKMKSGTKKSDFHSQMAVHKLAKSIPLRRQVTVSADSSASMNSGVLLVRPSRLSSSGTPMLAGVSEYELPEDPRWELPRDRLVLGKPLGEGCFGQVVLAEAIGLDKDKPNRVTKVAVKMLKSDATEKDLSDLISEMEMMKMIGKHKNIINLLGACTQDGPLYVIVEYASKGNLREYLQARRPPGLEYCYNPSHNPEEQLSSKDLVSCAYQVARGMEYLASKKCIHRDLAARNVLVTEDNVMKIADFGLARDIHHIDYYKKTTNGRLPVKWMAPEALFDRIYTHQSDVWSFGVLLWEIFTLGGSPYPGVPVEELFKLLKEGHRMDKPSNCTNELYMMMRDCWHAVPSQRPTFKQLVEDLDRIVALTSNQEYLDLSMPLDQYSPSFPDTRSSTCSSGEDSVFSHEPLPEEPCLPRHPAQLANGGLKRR
FGFR1, sequence (P11362 22-822): as the sequence (P11362 22-822 limits assumed, change not shown) above
FGFR4, sequence (P22455 22-802): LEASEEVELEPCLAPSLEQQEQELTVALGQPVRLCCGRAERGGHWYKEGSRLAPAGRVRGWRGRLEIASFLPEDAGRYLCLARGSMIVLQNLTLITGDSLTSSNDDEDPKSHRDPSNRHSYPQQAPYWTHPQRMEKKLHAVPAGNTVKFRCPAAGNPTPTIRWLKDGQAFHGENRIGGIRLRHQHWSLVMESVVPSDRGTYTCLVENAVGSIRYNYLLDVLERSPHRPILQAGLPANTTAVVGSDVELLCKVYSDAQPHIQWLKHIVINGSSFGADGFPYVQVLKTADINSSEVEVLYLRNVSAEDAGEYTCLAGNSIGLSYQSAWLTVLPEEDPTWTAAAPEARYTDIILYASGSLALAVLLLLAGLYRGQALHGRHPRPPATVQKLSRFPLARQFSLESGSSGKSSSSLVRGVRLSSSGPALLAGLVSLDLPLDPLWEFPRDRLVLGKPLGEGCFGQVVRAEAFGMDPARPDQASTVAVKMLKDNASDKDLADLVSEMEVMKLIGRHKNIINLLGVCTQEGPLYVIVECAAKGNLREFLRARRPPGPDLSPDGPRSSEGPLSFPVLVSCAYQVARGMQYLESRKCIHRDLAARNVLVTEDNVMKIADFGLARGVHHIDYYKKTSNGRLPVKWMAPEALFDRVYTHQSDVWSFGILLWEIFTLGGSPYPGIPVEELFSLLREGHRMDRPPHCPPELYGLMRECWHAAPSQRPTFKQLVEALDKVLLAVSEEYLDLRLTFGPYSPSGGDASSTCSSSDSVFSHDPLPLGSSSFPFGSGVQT
FGFR2, sequence (P21802 22-821): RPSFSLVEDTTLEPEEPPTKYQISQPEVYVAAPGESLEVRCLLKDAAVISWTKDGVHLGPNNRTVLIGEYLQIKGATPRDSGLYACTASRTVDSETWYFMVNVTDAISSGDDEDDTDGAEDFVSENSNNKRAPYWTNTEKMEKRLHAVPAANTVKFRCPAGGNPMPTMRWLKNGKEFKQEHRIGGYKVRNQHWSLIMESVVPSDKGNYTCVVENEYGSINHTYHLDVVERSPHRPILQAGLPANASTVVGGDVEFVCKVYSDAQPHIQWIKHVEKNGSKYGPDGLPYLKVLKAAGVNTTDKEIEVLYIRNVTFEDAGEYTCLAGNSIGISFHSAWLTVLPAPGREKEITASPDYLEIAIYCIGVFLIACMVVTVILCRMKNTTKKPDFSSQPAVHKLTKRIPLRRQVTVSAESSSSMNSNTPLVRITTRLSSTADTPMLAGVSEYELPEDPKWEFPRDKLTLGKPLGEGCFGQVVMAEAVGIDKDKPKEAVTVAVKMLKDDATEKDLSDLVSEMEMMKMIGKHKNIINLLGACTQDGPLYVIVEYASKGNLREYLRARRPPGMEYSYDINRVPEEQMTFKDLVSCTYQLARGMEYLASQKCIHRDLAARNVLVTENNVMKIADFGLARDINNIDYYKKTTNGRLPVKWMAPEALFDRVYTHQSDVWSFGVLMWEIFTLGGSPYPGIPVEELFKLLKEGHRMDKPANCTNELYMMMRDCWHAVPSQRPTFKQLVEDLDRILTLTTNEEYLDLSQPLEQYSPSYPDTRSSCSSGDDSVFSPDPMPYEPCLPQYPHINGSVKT
FGFR3-BAIAP2L1 Ba/F3 cells, sequence (P22607 23-806 limits assumed, change not shown): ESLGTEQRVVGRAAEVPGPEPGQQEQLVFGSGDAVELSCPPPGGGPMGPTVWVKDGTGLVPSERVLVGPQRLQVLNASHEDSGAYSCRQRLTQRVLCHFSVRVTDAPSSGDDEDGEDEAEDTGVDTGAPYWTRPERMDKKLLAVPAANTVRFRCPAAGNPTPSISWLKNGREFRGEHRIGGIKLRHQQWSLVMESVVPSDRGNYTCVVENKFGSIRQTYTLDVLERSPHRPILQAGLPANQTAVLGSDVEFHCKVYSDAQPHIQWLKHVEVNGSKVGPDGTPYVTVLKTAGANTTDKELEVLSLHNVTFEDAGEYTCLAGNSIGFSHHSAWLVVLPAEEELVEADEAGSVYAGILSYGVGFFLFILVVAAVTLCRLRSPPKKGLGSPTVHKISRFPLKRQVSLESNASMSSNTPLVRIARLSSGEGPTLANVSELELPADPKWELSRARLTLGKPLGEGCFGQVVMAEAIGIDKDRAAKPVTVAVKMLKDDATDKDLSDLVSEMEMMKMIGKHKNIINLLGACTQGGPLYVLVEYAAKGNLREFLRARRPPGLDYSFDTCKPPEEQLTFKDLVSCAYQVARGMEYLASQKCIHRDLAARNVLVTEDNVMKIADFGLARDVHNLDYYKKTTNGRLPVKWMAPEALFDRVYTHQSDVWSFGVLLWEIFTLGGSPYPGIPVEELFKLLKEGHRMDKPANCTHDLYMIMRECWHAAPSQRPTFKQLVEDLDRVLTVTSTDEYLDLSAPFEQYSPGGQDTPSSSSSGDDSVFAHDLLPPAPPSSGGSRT
FGFR3, sequence (P22607 23-806): as the sequence (P22607 23-806 limits assumed, change not shown) above
FGFR3 (V555M), sequence (P22607 23-806 V555M): as the sequence (P22607 23-806 limits assumed, change not shown) above, with V533M counted along it

| SMILES | Ba/F3 FGFR1/FGFR3 Selectivity [1] | IC50 [1] | Kd (FGFR4) | Kd (FGFR1) | Kd (FGFR3) | Kd (FGFR3 (V555M)) | Kd (FGFR2) | IC50 (FGFR1-BCR Ba/F3 cells) |
| --- | --- | --- | --- | --- | --- | --- | --- | --- |
| C[C@@H](Oc1ccc2[nH]nc(-c3ccc(C4CCN(C(N)=O)CC4)nc3)c2c1)c1c(Cl)cncc1Cl [Example 72, 4-[5-[5-[(1R)-1-(3,5-dichloro-4-pyridyl)ethoxy]-1H-indazol-3-yl]-2-pyridyl]piperidine-1-carboxamide] | 15 | 1 to 20 nM | 1 to 20 nM | 1 to 20 nM | 1 to 20 nM | 1 to 20 nM | 1 to 20 nM | 20 to 100 nM |
| C[C@@H](Oc1ccc2[nH]nc(-c3ccc(N4CC5(CNC5)OC4=O)nc3)c2c1)c1c(Cl)cncc1Cl [Example 73, 7-[5-[5-[(1R)-1-(3,5-dichloro-4-pyridyl)ethoxy]-1H-indazol-3-yl]-2-pyridyl]-5-oxa-2,7-diazaspiro[3.4]octan-6-one] | 11 | 20 to 100 nM | 1 to 20 nM | 1 to 20 nM | 1 to 20 nM | 1 to 20 nM | 20 to 100 nM | 100 to 300 nM |
| C[C@@H](Oc1ccc2[nH]nc(-c3ccc(N4CC5(CCNCC5)OC4=O)nc3)c2c1)c1c(Cl)cncc1Cl [Example 74, 3-[5-[5-[(1R)-1-(3,5-dichloro-4-pyridyl)ethoxy]-1H-indazol-3-yl]-2-pyridyl]-1-oxa-3,8-diazaspiro[4.5]decan-2-one] | 6 | 20 to 100 nM | 1 to 20 nM | 1 to 20 nM | 1 to 20 nM | 1 to 20 nM | 1 to 20 nM | 100 to 300 nM |
| C[C@@H](Oc1ccc2[nH]nc(-c3ccc(N4CC5(CCN(C)CC5)OC4=O)nc3)c2c1)c1c(Cl)cncc1Cl [Example 75, 3-[5-[5-[(1R)-1-(3,5-dichloro-4-pyridyl)ethoxy]-1H-indazol-3-yl]-2-pyridyl]-8-methyl-1-oxa-3,8-diazaspiro[4.5]decan-2-one] | 14 | 1 to 20 nM | 1 to 20 nM | 1 to 20 nM | 1 to 20 nM | 1 to 20 nM | 1 to 20 nM | 100 to 300 nM |
| C[C@@H](Oc1ccc2[nH]nc(-c3ccc(N4CCC5(CC4)CCS(=O)(=O)C5)nc3)c2c1)c1c(Cl)cncc1Cl [Example 78, 8-[5-[5-[(1R)-1-(3,5-dichloro-4-pyridyl)ethoxy]-1H-indazol-3-yl]-2-pyridyl]-2λ^6-thia-8-azaspiro[4.5]decane 2,2-dioxide] | 13 | 1 to 20 nM | 1 to 20 nM | 1 to 20 nM | 1 to 20 nM | 1 to 20 nM | 1 to 20 nM | 20 to 100 nM |
| C[C@@H](Oc1ccc2[nH]nc(-c3cnn(C4CCN(CCO)CC4)c3)c2c1)c1c(Cl)cncc1Cl [Example 79, 2-[4-[4-[5-[(1R)-1-(3,5-dichloro-4-pyridyl)ethoxy]-1H-indazol-3-yl]pyrazol-1-yl]-1-piperidyl]ethanol] | 14 | 1 to 20 nM | 1 to 20 nM | 1 to 20 nM | 1 to 20 nM | 1 to 20 nM | 1 to 20 nM | 20 to 100 nM |
| Cc1ncc(Cl)c([C@@H](C)Oc2ccc3[nH]nc(-c4cnn(C5CCN(C)CC5)c4)c3c2)c1Cl [Example 80, 5-[(1R)-1-(3,5-dichloro-2-methyl-4-pyridyl)ethoxy]-3-[1-(1-methyl-4-piperidyl)pyrazol-4-yl]-1H-indazole] | 17 | 1 to 20 nM | 100 to 300 nM | 1 to 20 nM | 1 to 20 nM | 1 to 20 nM | 1 to 20 nM | 100 to 300 nM |
| C[C@@H](Oc1ccc2[nH]nc(-c3cnn(C4CCN(C(=O)CCN(C)C)CC4)c3)c2c1)c1c(Cl)cncc1Cl [Example 82, 1-[4-[4-[5-[(1R)-1-(3,5-dichloro-4-pyridyl)ethoxy]-1H-indazol-3-yl]pyrazol-1-yl]-1-piperidyl]-3-(dimethylamino)propan-1-one] | 11 | 1 to 20 nM | 20 to 100 nM | 1 to 20 nM | 1 to 20 nM | 1 to 20 nM | 1 to 20 nM | 100 to 300 nM |
| C[C@@H](Oc1ccc2[nH]nc(-c3cnn(C4CCN(C5CCC5)CC4)c3)c2c1)c1c(Cl)cncc1Cl [Example 90, 3-[1-(1-cyclobutyl-4-piperidyl)pyrazol-4-yl]-5-[(1R)-1-(3,5-dichloro-4-pyridyl)ethoxy]-1H-indazole] | 10 | 1 to 20 nM | 20 to 100 nM | 1 to 20 nM | 1 to 20 nM | 1 to 20 nM | 1 to 20 nM | 20 to 100 nM |
| CCN1CC[C@@H](n2cc(-c3n[nH]c4ccc(O[C@H](C)c5c(Cl)cncc5Cl)cc34)cn2)C1 [Example 91, 5-[(1R)-1-(3,5-dichloro-4-pyridyl)ethoxy]-3-[1-[(3R)-1-ethylpyrrolidin-3-yl]pyrazol-4-yl]-1H-indazole] | 8 | 1 to 20 nM | 20 to 100 nM | 1 to 20 nM | 1 to 20 nM | 1 to 20 nM | 1 to 20 nM | 100 to 300 nM |
| Cc1ncc(Cl)c([C@@H](C)Oc2ccc3[nH]nc(-c4cnn(C5CCNCC5)c4)c3c2)c1Cl [Example 92, 5-[(1R)-1-(3,5-dichloro-2-methyl-4-pyridyl)ethoxy]-3-[1-(4-piperidyl)pyrazol-4-yl]-1H-indazole] | 18 | 20 to 100 nM | 20 to 100 nM | 1 to 20 nM | 1 to 20 nM | 1 to 20 nM | 1 to 20 nM | 100 to 300 nM |
| C[C@@H](Oc1ccc2[nH]nc(-c3ccc(N4CC5(CCN5S(C)(=O)=O)C4)nc3)c2c1)c1c(Cl)cncc1Cl [Example 100, 5-[(1R)-1-(3,5-dichloro-4-pyridyl)ethoxy]-3-[6-(1-methylsulfonyl-1,6-diazaspiro[3.3]heptan-6-yl)-3-pyridyl]-1H-indazole] | 22 | 1 to 20 nM | 1 to 20 nM | 1 to 20 nM | 1 to 20 nM | 1 to 20 nM | 1 to 20 nM | > 300 nM |
| Cc1ncc(Cl)c([C@@H](C)Oc2ccc3[nH]nc(-c4cnn(C5CCOCC5)c4)c3c2)c1Cl [Example 104, 5-[(1R)-1-(3,5-dichloro-2-methyl-4-pyridyl)ethoxy]-3-(1-tetrahydropyran-4-ylpyrazol-4-yl)-1H-indazole] | 10 | 20 to 100 nM | 20 to 100 nM | 20 to 100 nM | 1 to 20 nM | 1 to 20 nM | 1 to 20 nM | > 300 nM |
| CC(Oc1ccc2[nH]nc(-c3cnn(C4CCN(C5COC5)CC4)c3)c2c1)c1c(Cl)ccnc1Cl (centres unmarked) [Example 108, 5-[1-(2,4-dichloro-3-pyridyl)ethoxy]-3-[1-[1-(oxetan-3-yl)-4-piperidyl]pyrazol-4-yl]-1H-indazole] | 14 | 1 to 20 nM | 20 to 100 nM | 20 to 100 nM | 1 to 20 nM | 1 to 20 nM | 1 to 20 nM | 100 to 300 nM |
| C[C@@H](Oc1ccc2[nH]nc(-c3cnn(C4CCS(=O)(=O)CC4)c3)c2c1)c1c(Cl)cncc1Cl [Example 114, 4-[4-[5-[(1R)-1-(3,5-dichloro-4-pyridyl)ethoxy]-1H-indazol-3-yl]pyrazol-1-yl]thiane 1,1-dioxide] | 12 | 20 to 100 nM | 20 to 100 nM | 1 to 20 nM | 1 to 20 nM | 1 to 20 nM | 1 to 20 nM | 100 to 300 nM |
| Cc1ncc(Cl)c([C@@H](C)Oc2ccc3[nH]nc(-c4cnn(C5CCS(=O)(=O)CC5)c4)c3c2)c1Cl [Example 116, 4-[4-[5-[(1R)-1-(3,5-dichloro-2-methyl-4-pyridyl)ethoxy]-1H-indazol-3-yl]pyrazol-1-yl]thiane 1,1-dioxide] | 12 | 1 to 20 nM | 20 to 100 nM | 20 to 100 nM | 1 to 20 nM | 1 to 20 nM | 20 to 100 nM | 100 to 300 nM |
